Data on three molecules can be found in US20070191490A1, “Withacnistin compounds for treatment of cancer” (priority 2006, published 2007).

The test system of experiment [1] is phosphotyrosine-STAT3. The experiment in a line: Inhibition of phosphotyrosine-STAT3 levels in tumor cell lines (Western blotting). It is filed as cell-based, human. Here is the method: (§1) Western blotting. Treated cell samples were lysed in 30 mM HEPES, pH 7.5, 10 mM NaCl, 5 mM MgCl2, 25 mM NaF, 1 mM EGTA, 1% Triton X-100, 10% glycerol, 2 mM sodium orthovanadate, 10 μg/ml aprotinin, 10μ/ml soybean trypsin inhibitor, 25 μg/ml leupeptin, 2 mM PMSF, and 6.4 mg/ml p-nitrophenylphosphate. Phospho-STAT3, phospho-AKT, phospho-Src, and phospho-p42/p44 MAPK antibodies were obtained from Cell Signaling Technologies (Cambridge, Mass., USA). Phospho-JNK and whole STAT3 antibodies were purchased from Santa Cruz Biotechnology (Santa Cruz, Calif., USA); phospho-JAK2 antibody came from Upstate Biotechnology (Lake Placid, N.Y., USA). Membranes were blocked in either 5% milk in phosphate-buffered saline (PBS), pH 7.4, containing 0.1% Tween-20 (PBS-T) or 1% BSA in tris-buffered saline (TBS), pH 7.5, containing 0.1% Tween-20 (TBS-T). Phospho-specific antibodies (excepting P-MAPK and P-JNK) were incubated in 1% BSA in TBS-T while all other antibodies were diluted in 5% milk in PBS-T for either 2 h at room temperature or overnight at 4° C. HRP-conjugated secondary antibodies (Jackson ImmunoResearch, West Grove, Pa., USA) were diluted in 5% milk in either PBS-T or TBS-T at 1:1000 dilution for 1 h at room temperature. Western blots were visualized using enhanced chemiluminescence.
(§2) To this end, A549 cells (a human non-small-cell lung carcinoma line) were treated with either vehicle, cucurbitacin analogs A, B, E, or I, or withacnistin mixture (10 ∥M) for 4 hours and the cell lysates processed for Western blotting with antiphosphotyrosine STAT3 (Y705) antibody or antiphosphotyrosine JAK2 (Y1007, Y1008) antibody as described under Materials and Methods.
(§3) As further support of the specific antiphosphotyrosine STAT3, but not antiphosphotyrosine JAK2, activity of withacnistin, A549 cells, as well as two breast carcinoma cell lines (MDA-MB-435 and MDA-MB-468) that also express constitutively activated JAK2 and STAT3, were treated with the withacnistin mixture at various concentrations, and determined IC50 values of inhibition of STAT3 and JAK2 activation.
On the technique in general: In western blotting, separated proteins are transferred to a membrane and probed.

For experiment [2], the system named is phosphotyrosine-JAK2. Description: Inhibition of phosphotyrosine-JAK2 levels in tumor cell lines (Western blotting). The experiment is classed as cell-based, human. The settings on record: for levels of P-JAK2: A549 cells, 10 μM, 4 hours. Here is the method:
as §1, §2, §3

In experiment [3] the test system is A549 tumors. The experiment in a line: Antitumor activity in nude mouse xenograft model, A549. The following applies: nude mice. It is filed as in vivo. The text has this: (§4) Antitumor activity in the nude mouse tumor xenograft model. Nude mice (Charles River, Wilmington, Mass., USA) were maintained in accordance with the Institutional Animal Care and Use Committee (IACUC) procedures and guidelines. A549 cells were harvested, resuspended in PBS, and injected subcutaneously (s.c.) into the right and left flank (1×10^7 cells per flank) of 8-week-old female nude mice as reported previously (Blaskovich, M. A. et al. Cancer Res., 2003, 63:1270-1279). When tumors reached about 150 mm^3, animals were randomized (four animals per group; two tumors per animal) and dosed intraperitoneally (i.p.) either with cucurbitacin analogs (0.5 or 1 mg/kg/day, i.p.) in 20% DMSO in water or with an equal volume of vehicle control. The tumor volumes were determined by measuring the length (l) and the width (w) and calculating the volume (V=lw^2/2) as described previously (Blaskovich, M. A. et al. Cancer Res., 2003, 63:1270-1279). Statistical significance between control and treated animals were evaluated by using Student's t-test.
(§5) To determine the ability of the cucurbitacin analogs and withacnistin to inhibit tumor growth in vivo, the antitumor activity of the cucurbitacin analogs and withacnistin against both A549 and v-Src/3T3 tumors in a nude mouse xenograft model was evaluated. When the tumors became palpable (at volumes of approximately 100-150 mm^3), the mice were treated either with vehicle control or 1 mg/kg/day of the cucurbitacins or the withacnistin mixture. Tumor volumes were monitored by caliper measurement as previously described (Blaskovich, M. A. et al. Cancer Res., 2003, 63:1270-1279) and under Materials and Methods.

The test system of experiment [4] is v-Src/3T3 tumors. The experiment in a line: Antitumor activity in nude mouse xenograft model, v-Src/3T3. The experiment is classed as in vivo. The settings on record: v-Src/3T3 xenograft, nude mice.
From the text: as §4, §5
Withacnistin inhibited 57% of tumor growth while Cuc I, B, and E inhibited 45, 40, and 42% of tumor growth, respectively (FIG. 3 and Table 2).

Setting [5] is: 1 mg/kg/day i.p., Wit = withacnistin mixture.
Where [6] appears, read: 0.5 mg/kg/day i.p., 0.5 mg/kg/day.

“And” between values parts separate entries of the source, which are not always exact repeats. Equal entries are not always repeated. Where two headings read alike, the source gives them in different places.

Regarding `CC(=O)OC(C)(C)/C=C/C(=O)[C@](C)(O)[C@H]1[C@H](O)C[C@@]2(C)[C@@H]3CC=C4[C@@H](C=C(O)C(=O)C4(C)C)[C@]3(C)C(=O)C[C@]12C` [Cuc E, cucurbitacin E], the “levels of P-STAT3” value in experiment [1] (A549 cells, 10 μM, 4 hours) is “inhibited”. The “levels of P-JAK2” value in experiment [2] is on record as “inhibited”. For the same molecule, the “% Inhibition of tumor growth” value amounted to 48.5% in experiment [3] (setting [5]) and 42% in experiment [4] (setting [5]).

With `CC(=O)OC(C)(C)/C=C/C(=O)[C@](C)(O)[C@H]1[C@H](O)C[C@@]2(C)[C@@H]3CC=C4[C@H](C[C@H](O)C(=O)C4(C)C)[C@]3(C)C(=O)C[C@]12C` [Cuc B, cucurbitacin B], in experiment [1], the “levels of P-STAT3” value is listed as “inhibited”. Moreover, in experiment [2], the “levels of P-JAK2” value is “inhibited”. Also, the “% Inhibition of tumor growth” value in experiment [3] (setting [6]) was 53.6% and 53.6^b %; in experiment [4] (setting [6]), 40% and 40^a %.

For “3-ethoxy-2,3-dihydrowithacnistin [EDH-Wit]”, the P-STAT3 levels result in experiment [1] (A549 cells (FIG. 8A)) is given as “suppressed neither”. In addition, the P-JAK2 levels result in experiment [2] (A549 cells (FIG. 8A)) is “suppressed neither”.
